What was measured:
Conditions in all cases: incubation time: 72 h
[1] = test system: CAL-148; assay: normalised viability (% of control), CellTiter-Blue; higher = more viable cells (about 100 = DMSO control)
Outline: (§1)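 Plates were quality-checked by Z'-factor and normalised to vehicle (100) and a positive kill control (0). The underlying assay incubated breast cancer cell lines for 72 h on 384-well plates with compound, then added 2.5 µl CellTiter-Blue for 2 h at 37 °C and read at 560/590 nm. The value is normalised viability at a single listed concentration of the series.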

[2] = test system: CAL-51; assay: as above
Outline: as §1

[3] = test system: CAL-85-1; assay: as above
Outline: as §1

[4] = test system: DU-4475; assay: as above
Outline: as §1

[5] = test system: HDQ-P1; assay: as above
Outline: as §1

[6] = test system: MDA-MB-453; assay: as above
Outline: as §1

[7] = test system: BT-474; assay: normalised response (% of control), CellTiter-Glo; higher = more viable cells (100 = DMSO, 0 = benzethonium chloride kill control)
Outline: (§2)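 CellTox Green fluorescence (485/520 nm) and, after 10 min at room temperature, CellTiter-Glo luminescence were read from breast cancer cell lines incubated 72 h in 384-well plates. Cells were seeded as 20 µl suspension onto compound at 5 concentrations in 10-fold steps over a 10,000-fold range chosen per compound. Each plate was normalised to 0.1 % DMSO (100) and a positive kill control (0). Values are normalised signals, one per concentration.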

[8] = test system: CAL-148; assay: as above
Outline: as §2

[9] = test system: CAL-51; assay: as above
Outline: as §2

[10] = test system: HCC1143; assay: as above
Outline: as §2

[11] = test system: HCC1599; assay: as above
Outline: as §2

[12] = test system: HCC1937; assay: as above
Outline: as §2

[13] = test system: MCF-10A; assay: as above
Outline: as §2

[14] = test system: MDA-MB-436; assay: as above
Outline: as §2

[15] = test system: SK-BR-3; assay: as above
Outline: as §2

Row | Structure (SMILES) | normalised viability [1] | normalised viability [2] | normalised viability [3] | normalised viability [4] | normalised viability [5] | normalised viability [6] | normalised response [7] | normalised response [8] | normalised response [9] | normalised response [10] | normalised response [11] | normalised response [12] | normalised response [13] | normalised response [14] | normalised response [15]
1 | COc1c(C)cnc(Cn2cnc3c(Cl)nc(N)nc32)c1C [BIIB021] (10000 nM) | 15.7% | 9.69% | 21.7% | -0.63% | 30.4% | 4.83% | 27.5% | 25.1% | 11.4% | 31.5% | 47.4% | 29.4% | 13.4% | 41.7% | 34.3%
2 | O=c1[nH]c(=O)n([C@H]2C[C@H](O)[C@@H](CO)O2)cc1F [Floxuridine] (10000 nM) | 31.9% | 15.5% | 39.3% | 56.2% | 93.9% | 32.2% | 59% | 95.7% | 29.4% | 77.6% | 58.1% | 42% | 84.7% | 57.3% | 44.8%
3 | C[C@@H]1C=C2C(=O)O[C@@H]3CC[C@H](C1)[C@]23O [Galiellalactone] (50000 nM) | 22.4% | 43.1% | 9.47% | 77.4% | 41.7% | 9.52% | 108% | 124% | 71.1% | 100% | 90.3% | 107% | 106% | 89.5% | 107%
4 | COC1=C2C[C@@H](C)C[C@H](OC)[C@H](O)[C@@H](C)/C=C(\C)[C@H](OC(N)=O)[C@@H](OC)/C=C\C=C(/C)C(=O)NC(=CC1=O)C2=O [Geldanamycin] (10000 nM) | 7.57% | 2.17% | 6.88% | -0.94% | 14.5% | 7.62% | 8.17% | 33.4% | 6.33% | 24.1% | 45% | 24.2% | 10.7% | 24.4% | 30.7%
5 | COc1ccc(C2=N[C@@H](c3ccc(Cl)cc3)[C@@H](c3ccc(Cl)cc3)N2C(=O)N2CCNC(=O)C2)c(OC(C)C)c1 [Nutlin-3] (10000 nM) | 57.3% | 53.3% | 86.6% | 36.1% | 111% | 90% | 93.3% | 71.4% | 50.7% | 92.9% | 98.5% | 97.6% | 89.2% | 102% | 99.1%
6 | COc1ncc(-c2ccc3nccc(-c4ccnnc4)c3c2)cc1NS(=O)(=O)c1ccc(F)cc1F (1000 nM) | 2.42% | 3.63% | 18.6% | 10.2% | 14.4% | 5.04% | 43% | 6.28% | 6.49% | 23.6% | 56.4% | 24% | 18.8% | 39.4% | 19.1%
7 | Cn1cnc2c(F)c(Nc3ccc(Br)cc3F)c(C(=O)NOCCO)cc21 [MEK-162] (1000 nM) | 90.6% | 84.5% | 70.5% | -0.34% | 91.2% | 122% | 73.9% | 95.9% | 76.4% | 86.5% | 100% | 86% | 38.9% | 94% | 94.5%
8 | COc1cccc2c1C(=O)c1c(O)c3c(c(O)c1C2=O)C[C@@](O)(C(C)=O)C[C@@H]3O[C@H]1C[C@H](N)[C@H](O)[C@H](C)O1 [Daunorubicin] (1000 nM) | -0.25% | 1.88% | 12.2% | -1.24% | 16% | 11.6% | 19% | 0.79% | 3.08% | 23.9% | 19.3% | 32.1% | 27.1% | 22.8% | 11.6%
9 | C[C@@]1(C(=O)Nc2ccc(F)nc2)CCCN1c1nc(Nc2cc(C3CC3)n[nH]2)c2cccn2n1 (10000 nM) | 49.1% | 6.06% | 30.6% | 3.48% | 7.47% | 75.3% | 29.8% | 56.7% | 19.9% | 36.1% | 54.9% | 62.6% | 7.53% | 40.6% | 57.4%
10 | CS(=O)(=O)OCCCCOS(C)(=O)=O [Busulfan] (100000 nM) | 114% | 91.9% | 105% | 89% | 109% | 103% | 89.9% | 106% | 110% | 104% | 96% | 98.8% | 102% | 104% | 111%
11 | Cn1c(=O)c(F)c(Nc2ccc(I)cc2F)c2c(=O)n(C[C@@H](O)CO)cnc21 [TAK-733] (1000 nM) | 92.8% | 66% | 39.7% | 0.83% | 60% | 51.2% | 57.4% | 98.9% | 78.2% | 76.7% | 82% | 68.3% | 35.5% | 76.8% | 105%
12 | CCCC(CCC)C(=O)O [Valproic acid] (10000 nM) | 91.5% | 91.4% | 86.8% | 82.9% | 125% | 106% | – | – | – | – | – | – | – | – | –

Reference: the supplement of paper PMC4862054
